Experimental findings from patent publication US20230212121A1 (DAEGU-GYEONGBUK MEDICAL INNOVATION FOUNDATION, priority 2020, published 2023) are described below.

Common to all, as to type: cell-based
The target of test [1] is T1, serotonin transporter (SERT) (Homo sapiens, UniProt P31645).
T1 construct: expressed in transfected cells; host or cells: HEK-293
In words: Serotonin reuptake inhibition, [3H]-5-HT, HEK-293 cells transfected with 5-HT transporter cDNA. Particulars: for Triple reuptake inhibition (Ratio %) SERT: compound 1 μM, [3H]-5-HT, relative to control without compound = 100%, lower value = more inhibition; for IC50: concentration at which Ratio % is 50%, 6 concentrations 1 nM to 1 μM, read-out: Triple reuptake inhibition (IC50, μM) SERT. Here is the method:
(§1) In order to evaluate the reuptake inhibitory effect of the compounds of the Examples according to the present invention on serotonin, norepinephrine and dopamine, the experiments below were performed, and the results are shown in Table 17.
(§2) To evaluate the reuptake inhibition effect on dopamine, the dopamine transporter cDNA was transfected using the HEK-293 cell line, and then sub-seeded in a 24 well plate the next day. After removing the medium, each compound of the Examples or Comparative Examples diluted to 1 μM in uptake buffer was added to a concentration of 200 μl/well and cultured at 37° C. for 15 minutes. 100 μl of uptake buffer containing 20-30 nM [3H]-DA was added and cultured at 37° C. for 5 minutes. The reaction solution was quickly removed and washed three times with 1 ml ice-cold uptake buffer. After dissolving the resultant in 1% SDS (0.5 ml), the degree of binding of radioisotope-labeled dopamine to the transporter was measured.
(§3) For norepinephrine (NE) and serotonin (5-HT), the degree of binding of radioisotope-labeled norepinephrine or serotonin to the transporter was measured in the same manner as above, except that cells transfected with NE or 5-HT transporter cDNA were used and [3H]—NE or [3H]-5-HT was used as a substrate.
(§4) In addition, when evaluating the reuptake inhibitory effect on dopamine, norepinephrine, and serotonin, the same method was performed without treating each compound of the Examples or Comparative Examples as a control, the degree of binding of radioisotope-labeled dopamine, norepinephrine, and serotonin to the transporter was measured, and by using this as a reference (100%), the triple reuptake inhibitory effect was evaluated as a relative ratio (Ratio %). That is, in the control group, the binding of dopamine, norepinephrine, and serotonin to transporters is not inhibited, but when each compound of the Examples is treated and thus the binding is inhibited, the Ratio % value decreases.
(§5) Meanwhile, the Ratio % values were compared, and in the case of the compounds of Examples 6, 10, 13, 14, 17, 20, 21, 22, 30, 31, 32, 34, 36, 38, 39, 40, 54, 55, 56, 57, 58 and 73 with excellent reuptake inhibitory effects on dopamine, norepinephrine and serotonin, the concentration at which the Ratio % is 50% was calculated using a total of 6 concentrations (1 nM, 5 nM, 10 nM, 50 nM, 100 nM, and 1 μM) and expressed as IC50.

The target in test [2] is T2, norepinephrine transporter (NET) (Homo sapiens, UniProt P23975).
T2 construct: expressed in transfected cells; host or cells: HEK-293
Description: Norepinephrine reuptake inhibition, [3H]-NE, HEK-293 cells transfected with NE transporter cDNA. The conditions noted are these: for Triple reuptake inhibition (Ratio %) NET: compound 1 μM, [3H]-NE, relative to control without compound = 100%, lower value = more inhibition; for IC50: concentration at which Ratio % is 50%, 6 concentrations 1 nM to 1 μM, read-out: Triple reuptake inhibition (IC50, μM) NET. Here is the method: as §1, §2, §3, §4, §5

In test [3] the target is T3, dopamine transporter (DAT) (Homo sapiens, UniProt Q01959).
T3 construct: expressed in transfected cells; host or cells: HEK-293
Description: Dopamine reuptake inhibition, [3H]-DA, HEK-293 cells transfected with dopamine transporter cDNA. The conditions noted are these: for Triple reuptake inhibition (Ratio %) DAT: compound 1 μM, 20-30 nM [3H]-DA, relative to control without compound = 100%, lower value = more inhibition; for IC50: concentration at which Ratio % is 50%, 6 concentrations 1 nM to 1 μM, read-out: Triple reuptake inhibition (IC50, μM) DAT. Here is the method: as §1, §2, §4, §5

T3 sequence (Q01959 whole entry, species assumed): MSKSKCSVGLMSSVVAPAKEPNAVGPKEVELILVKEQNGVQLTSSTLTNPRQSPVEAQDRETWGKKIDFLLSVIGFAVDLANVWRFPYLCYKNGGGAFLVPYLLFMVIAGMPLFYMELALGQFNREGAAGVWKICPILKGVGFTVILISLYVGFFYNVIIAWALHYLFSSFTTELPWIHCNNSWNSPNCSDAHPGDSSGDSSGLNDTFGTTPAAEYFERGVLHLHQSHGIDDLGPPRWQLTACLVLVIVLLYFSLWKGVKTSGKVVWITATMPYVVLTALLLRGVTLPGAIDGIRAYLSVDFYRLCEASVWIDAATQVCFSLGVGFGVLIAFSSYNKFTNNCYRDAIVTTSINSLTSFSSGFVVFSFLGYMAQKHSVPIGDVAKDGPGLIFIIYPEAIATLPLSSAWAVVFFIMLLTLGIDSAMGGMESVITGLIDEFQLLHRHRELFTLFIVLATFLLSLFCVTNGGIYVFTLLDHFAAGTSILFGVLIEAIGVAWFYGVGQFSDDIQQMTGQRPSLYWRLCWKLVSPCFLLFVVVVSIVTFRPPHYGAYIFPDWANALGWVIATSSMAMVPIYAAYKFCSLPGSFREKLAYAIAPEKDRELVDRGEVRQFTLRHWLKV
T1 sequence (P31645 whole entry, species assumed): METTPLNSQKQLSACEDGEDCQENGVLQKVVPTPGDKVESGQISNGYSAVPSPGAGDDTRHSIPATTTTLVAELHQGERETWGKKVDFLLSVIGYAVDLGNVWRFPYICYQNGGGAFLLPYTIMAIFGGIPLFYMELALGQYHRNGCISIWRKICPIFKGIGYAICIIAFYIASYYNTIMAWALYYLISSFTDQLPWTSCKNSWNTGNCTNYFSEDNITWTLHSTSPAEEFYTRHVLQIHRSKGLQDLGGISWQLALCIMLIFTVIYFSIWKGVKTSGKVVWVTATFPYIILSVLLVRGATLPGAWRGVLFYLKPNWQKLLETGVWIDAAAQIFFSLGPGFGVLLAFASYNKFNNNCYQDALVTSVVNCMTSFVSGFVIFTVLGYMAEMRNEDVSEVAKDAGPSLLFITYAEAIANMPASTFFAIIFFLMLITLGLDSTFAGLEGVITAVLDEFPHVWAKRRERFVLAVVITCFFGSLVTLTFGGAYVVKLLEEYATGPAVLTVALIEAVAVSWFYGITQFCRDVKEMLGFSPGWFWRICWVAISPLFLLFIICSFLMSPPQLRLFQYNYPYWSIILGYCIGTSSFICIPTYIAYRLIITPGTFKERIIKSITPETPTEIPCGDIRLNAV
T2 sequence (P23975 whole entry, species assumed): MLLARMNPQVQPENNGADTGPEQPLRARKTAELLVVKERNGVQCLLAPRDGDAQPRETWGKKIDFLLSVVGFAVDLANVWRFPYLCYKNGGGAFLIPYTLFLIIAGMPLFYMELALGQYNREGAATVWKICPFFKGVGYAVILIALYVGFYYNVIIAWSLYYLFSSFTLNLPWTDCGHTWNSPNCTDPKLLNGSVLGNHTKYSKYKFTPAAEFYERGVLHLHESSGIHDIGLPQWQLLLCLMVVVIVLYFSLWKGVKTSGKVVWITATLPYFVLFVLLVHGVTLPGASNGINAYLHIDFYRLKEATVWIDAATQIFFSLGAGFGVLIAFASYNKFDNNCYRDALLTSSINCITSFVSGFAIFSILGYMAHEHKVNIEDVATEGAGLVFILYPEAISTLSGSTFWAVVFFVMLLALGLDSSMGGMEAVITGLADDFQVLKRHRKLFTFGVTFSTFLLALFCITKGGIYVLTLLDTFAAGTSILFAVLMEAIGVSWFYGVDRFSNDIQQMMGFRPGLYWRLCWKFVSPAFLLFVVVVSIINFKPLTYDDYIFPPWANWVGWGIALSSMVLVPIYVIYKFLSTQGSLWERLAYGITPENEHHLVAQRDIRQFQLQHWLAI

On to `CCCCOc1ccc(S(=O)(=O)NCCCN2CCC(Cc3ccccc3)CC2)cc1` [Example 10, N-(3-(4-benzylpiperidin-1-yl)propyl)-4-butoxybenzenesulfonamide], for which, in test [1], the “Triple reuptake inhibition (Ratio %) SERT” value amounted to 24.45% and the IC50 turned out to be 0.483 µM. For the same compound, in test [2], the “Triple reuptake inhibition (Ratio %) NET” value is listed as 13.02% and the half-maximal inhibitory concentration (IC50) was found to be 0.168 µM. In test [3], the “Triple reuptake inhibition (Ratio %) DAT” value is 41.80% and the concentration for half-maximal inhibition (IC50) was determined as 0.612 µM.

For `COc1ccc(-c2ccc(S(=O)(=O)NCCCN3CCC(Cc4ccccc4)CC3)cc2)cc1` [Example 61, N-(3-(4-benzylpiperidin-1-yl)propyl)-4′-methoxy-[1,1′-biphenyl]-4-sulfonamide], the “Triple reuptake inhibition (Ratio %) SERT” value in test [1] amounted to 30.78%. In addition, the “Triple reuptake inhibition (Ratio %) NET” value in test [2] is reported as 44.79%. Also, the “Triple reuptake inhibition (Ratio %) DAT” value in test [3] came to 29.62%.

In the case of `O=S(=O)(NCCN1CCN(c2ccc(Cl)cc2)CC1)c1cccc2ccccc12` [Example 51, N-(2-(4-(4-chlorophenyl)piperazinyl)ethyl)naphthalen-1-sulfonamide], the “Triple reuptake inhibition (Ratio %) SERT” value in test [1] is on record as 47.19%. The “Triple reuptake inhibition (Ratio %) NET” value in test [2] amounted to 64.45%. Moreover, in test [3], the “Triple reuptake inhibition (Ratio %) DAT” value turned out to be 68.53%.

Turning to `CCCCOc1ccc(S(=O)(=O)NCCCN2CCC(Cc3cccc(Cl)c3)CC2)cc1` [Example 31, 4-butoxy-N-(3-(4-(3-chlorobenzyl)piperidin-1-yl)propyl)benzenesulfonamide], in test [1], the “Triple reuptake inhibition (Ratio %) SERT” value was determined as 14.27% and the IC50 is 0.216 µM. In test [2], the “Triple reuptake inhibition (Ratio %) NET” value was found to be 18.93% and the 50% inhibitory concentration (IC50) is 0.041 µM. The 50% inhibitory concentration (IC50) in test [3] was 1.05 µM.

Consider `CCCCNc1ccc(S(=O)(=O)NCCCN2CCC(Cc3ccccc3)CC2)cc1` [Example 16, N-(3-(4-benzylpiperidin-1-yl)propyl)-4-(butylamino)benzenesulfonamide], for which the “Triple reuptake inhibition (Ratio %) SERT” value in test [1] was 74.25%. Besides, the “Triple reuptake inhibition (Ratio %) NET” value in test [2] was determined as 53.45%. The “Triple reuptake inhibition (Ratio %) DAT” value in test [3] is listed as 93.59%.

Take `CCCCOc1ccc(S(=O)(=O)NCCN2CCC(c3c[nH]c4ccc(C)cc34)CC2)cc1` [Example 7, 4-butoxy-N-(2-(4-(5-methyl-1H-indol-3-yl)piperidin-1-yl)ethyl)benzenesulfonamide]: in test [1], the “Triple reuptake inhibition (Ratio %) SERT” value was 93.29%. In test [2], the “Triple reuptake inhibition (Ratio %) NET” value is given as 88.38%. For the same compound, the “Triple reuptake inhibition (Ratio %) DAT” value in test [3] is 99.63%.

In the case of `CCCCOc1ccc(S(=O)(=O)NCCCN2CCC(Cc3ccc(OC)cc3)CC2)cc1` [Example 30, 4-butoxy-N-(3-(4-(4-methoxybenzyl)piperidin-1-yl)propyl)benzenesulfonamide], in test [1], the “Triple reuptake inhibition (Ratio %) SERT” value is 23.18% and the IC50 was determined as 0.538 µM. In test [2], the “Triple reuptake inhibition (Ratio %) NET” value is listed as 37.58% and the IC50 came to 1.7 µM. Also, the IC50 in test [3] amounted to 11.6 µM.

On to `O=S(=O)(NCCCN1CCC(Cc2ccccc2)CC1)c1ccc(-c2ccccc2)cc1` [Example 56, N-(3-(4-benzylpiperidin-1-yl)propyl)-[1,1′-biphenyl]-4-sulfonamide], for which, in test [1], the “Triple reuptake inhibition (Ratio %) SERT” value was 56.50% and the half-inhibitory concentration (IC50) worked out at 0.75 µM. In test [2], the “Triple reuptake inhibition (Ratio %) NET” value is recorded as 68.65% and the half-inhibitory concentration (IC50) came out at 0.641 µM. Moreover, in test [3], the “Triple reuptake inhibition (Ratio %) DAT” value is reported as 61.90% and the IC50 stood at 0.42 µM.

With `CCCCOc1ccc(S(=O)(=O)NCCCN2CCN(Cc3ccccc3)CC2)cc1` [Example 27, N-(3-(4-benzylpiperazin-1-yl)propyl)-4-butoxybenzenesulfonamide], the “Triple reuptake inhibition (Ratio %) SERT” value in test [1] is given as 76.16%. The “Triple reuptake inhibition (Ratio %) NET” value in test [2] was 36.89%. In test [3], the “Triple reuptake inhibition (Ratio %) DAT” value was found to be 88.17%.

`O=S(=O)(NCCN1CCC(Cc2ccccc2)CC1)c1ccc2ccccc2c1` [Example 38, N-(2-(4-benzylpiperidin-1-yl)ethyl) naphthalen-2-sulfonamide]: the “Triple reuptake inhibition (Ratio %) SERT” value in test [1] is 34.20%. Also, in test [2], the “Triple reuptake inhibition (Ratio %) NET” value is 21.54%. For the same compound, in test [3], the “Triple reuptake inhibition (Ratio %) DAT” value amounted to 56.59% and the IC50 was determined as 0.493 µM.

In the case of `O=S(=O)(NCCCCN1CCC(CCCc2ccccc2)CC1)c1ccc(-c2ccccc2)cc1` [Example 79, N-(4-(4-(3-phenylpropyl)piperidin-1-yl)butyl)-[1,1′-biphenyl]-4-sulfonamide], the “Triple reuptake inhibition (Ratio %) SERT” value in test [1] is listed as 21.60%. Besides, the “Triple reuptake inhibition (Ratio %) NET” value in test [2] turned out to be 30.25%. In addition, the “Triple reuptake inhibition (Ratio %) DAT” value in test [3] is reported as 20.60%.

Regarding `O=S(=O)(NCCCN1CCC(c2ccccc2)CC1)c1cccc2ccccc12` [Example 63], the “Triple reuptake inhibition (Ratio %) SERT” value in test [1] is reported as 64.15%. Moreover, the “Triple reuptake inhibition (Ratio %) NET” value in test [2] came to 34.97%. For the same compound, the “Triple reuptake inhibition (Ratio %) DAT” value in test [3] turned out to be 80.21%.

Consider `CCCCOc1ccc(S(=O)(=O)NCCN2CCC(c3c[nH]c4ccccc34)CC2)cc1` [Example 6], for which, in test [1], the “Triple reuptake inhibition (Ratio %) SERT” value is reported as 29.04% and the IC50 was found to be 0.457 µM. For the same compound, the “Triple reuptake inhibition (Ratio %) NET” value in test [2] is 81.97%. In test [3], the “Triple reuptake inhibition (Ratio %) DAT” value came out at 54.56% and the half-maximal inhibitory concentration (IC50) was determined as 1.99 µM.

For `O=S(=O)(NCCCN1CCC(Cc2ccccc2)CC1)c1ccc(OC(F)(F)F)cc1` [Example 34, N-(3-(4-benzylpiperidin-1-yl)propyl)-4-(trifluoromethoxy)benzenesulfonamide], in test [1], the “Triple reuptake inhibition (Ratio %) SERT” value was 57.25% and the IC50 stood at 2.59 µM. Also, in test [2], the “Triple reuptake inhibition (Ratio %) NET” value was determined as 20.03% and the 50% inhibitory concentration (IC50) worked out at 0.612 µM. For the same compound, in test [3], the “Triple reuptake inhibition (Ratio %) DAT” value is 16.35% and the IC50 was 0.942 µM.

In the case of `CCCCOc1ccc(S(=O)(=O)NCCCN2CCC(c3ccc(Cl)c(Cl)c3)CC2)cc1` [Example 22, 4-butoxy-N-(3-(4-(3,4-dichlorophenyl)piperidinyl)propyl)benzenesulfonamide], in test [1], the “Triple reuptake inhibition (Ratio %) SERT” value is 38.07% and the IC50 came out at 0.609 µM. Moreover, in test [2], the “Triple reuptake inhibition (Ratio %) NET” value is on record as 36.85% and the half-maximal inhibitory concentration (IC50) was 0.55 µM. In addition, in test [3], the “Triple reuptake inhibition (Ratio %) DAT” value is given as 31.02% and the 50% inhibitory concentration (IC50) came out at 1.51 µM.

As for `O=S(=O)(NCCN1CCN(Cc2ccccc2)CC1)c1ccc2ccccc2c1` [Example 46, N-(2-(4-benzylpiperazin-1-yl)ethyl)naphthalen-2-sulfonamide], the “Triple reuptake inhibition (Ratio %) SERT” value in test [1] came to 49.64%. Also, the “Triple reuptake inhibition (Ratio %) NET” value in test [2] is listed as 87.27%. Further, the “Triple reuptake inhibition (Ratio %) DAT” value in test [3] is recorded as 83.08%.

In the case of `O=S(=O)(NCCCN1CCC(Cc2ccccc2)CC1)c1ccc2ccccc2c1` [Example 54, N-(3-(4-benzylpiperidin-1-yl)propyl)naphthalen-2-sulfonamide], in test [1], the “Triple reuptake inhibition (Ratio %) SERT” value is 46.95% and the IC50 came out at 1.94 µM. In test [2], the “Triple reuptake inhibition (Ratio %) NET” value was 36.68% and the IC50 was 1.25 µM. In test [3], the “Triple reuptake inhibition (Ratio %) DAT” value came to 45.75% and the half-maximal inhibitory concentration (IC50) was 0.948 µM.

As for `CCCCOc1ccc(S(=O)(=O)NCCCN2CCC(c3c[nH]c4ccccc34)CC2)cc1` [Example 11, N-(3-(4-(1H-indol-3-yl)piperidin-1-yl)propyl)-4-butoxybenzenesulfonamide], in test [1], the “Triple reuptake inhibition (Ratio %) SERT” value is 18.04%. Further, in test [2], the “Triple reuptake inhibition (Ratio %) NET” value was 73.79%. For the same compound, the “Triple reuptake inhibition (Ratio %) DAT” value in test [3] came out at 73.16%.

`CN(C)CCC(=O)Nc1ccc(S(=O)(=O)NCCCN2CCC(Cc3ccccc3)CC2)cc1` [Example 18, N-(4-(N-(3-(4-benzylpiperidin-1-yl)propyl)sulfamoyl)phenyl)-3-(dimethylamino)propaneamide]: in test [2], the “Triple reuptake inhibition (Ratio %) NET” value came out at 66.54%. Also, the “Triple reuptake inhibition (Ratio %) DAT” value in test [3] was determined as 65.67%.

One may read the IC50 as the concentration at which inhibition is half-maximal.
